Data set [1] concerns O-glycosylation of secreted recombinant reporter proteins. The data set can be described thus: Western blot of His-tagged Kringle 1-3 protein in growth media (FIG. 1). The class given is cell-based, Pichia pastoris. Particulars: yJC53 treated with 2 or 20 μM, compared with pmt1Δ strain yJC55. Here is the method: Kringle 1-3 protein expression for the transformed yeast strains was carried out at in shake flasks at 24° C. with buffered glycerol-complex medium (BMGY) consisting of 1% yeast extract, 2% peptone, 100 mM potassium phosphate buffer pH 6.0, 1.34% yeast nitrogen base, 4×10-5% biotin, and 1% glycerol. The induction medium for protein expression was buffered methanol-complex medium (BMMY) consisting of 1% methanol instead of glycerol in BMGY. Pmt inhibitor Pmti-1, Pmti-2, or Pmti-3 in methanol was added to the growth medium to a final concentration of 0.2 μM, 2 μM, or 20 μM at the time the induction medium was added. Cells were harvested and centrifuged at 2,000 rpm for five minutes. The Pmt inhibitors Pmti-1, Pmti-2, and Pmti-3 are essentially interchangeable, with small variations in ease of use. […]

The nature of data set [2]: Solubility in the cell culture conditions. Format: physicochemical. Particulars: in the cell culture conditions described (BMGY/BMMY). Here is the method: Kringle 1-3 protein expression for the transformed yeast strains was carried out at in shake flasks at 24° C. with buffered glycerol-complex medium (BMGY) consisting of 1% yeast extract, 2% peptone, 100 mM potassium phosphate buffer pH 6.0, 1.34% yeast nitrogen base, 4×10-5% biotin, and 1% glycerol. The induction medium for protein expression was buffered methanol-complex medium (BMMY) consisting of 1% methanol instead of glycerol in BMGY. Pmt inhibitor Pmti-1, Pmti-2, or Pmti-3 in methanol was added to the growth medium to a final concentration of 0.2 μM, 2 μM, or 20 μM at the time the induction medium was added. Cells were harvested and centrifuged at 2,000 rpm for five minutes. The Pmt inhibitors Pmti-1, Pmti-2, and Pmti-3 are essentially interchangeable, with small variations in ease of use.

The text below walks through data of US8795984B2, “Production of glycoproteins with reduced O-glycosylation” (Merck Sharp & Dohme Corp., priority 2005, dated 2014).

SMILES strings stand for the structures.

For the compound `O=C(O)CN1C(=O)C(=Cc2ccc(OCc3ccccc3)c(OCc3ccccc3)c2)SC1=S` [Pmti-1, 5-[[3,4-bis(phenylmethoxy)phenyl]methylene]-4-oxo-2-thioxo-3-thiazolidineacetic Acid], the “O-glycosylation of Kringle 1-3 protein on Western blot” value in data set [1] is “reduced O-glycosylation to a level similar to that observed in a strain lacking Pmt1”.

As for `O=C(O)CN1C(=O)/C(=C/c2ccc(OCCc3ccccc3)c(OC(CO)c3ccccc3)c2)SC1=S` (centres unmarked) [Pmti-3], in data set [2], the solubility entry is “greater than that of Pmti-1 and Pmti-2”.
